{"source": "paper PMC12040169", "about": "(PLOS Biology, 2025)", "data": [{"assay": "in vitro", "conditions": "human, hela cells, % viability", "units": {"viability at 28.5 h, 10 µM": "%"}, "values": [{"molecule": "CCn1c(CNC(=O)c2cc(C(C)C)on2)nc2ccccc21", "note": "[CBK281393]", "viability at 28.5 h, 10 µM": 94.2}, {"molecule": "COc1cccc(C2CC(=O)c3c(ccc4ccccc34)N2)c1OC", "note": "(stereo not drawn) [CBK262971]", "viability at 28.5 h, 10 µM": 94.1}, {"molecule": "Cn1c(S)nnc1-c1ccccc1F", "note": "[CBK028811]", "viability at 28.5 h, 10 µM": 95}, {"molecule": "Cc1sc2nc(SCCCN3C(=O)c4cccc5cccc(c45)C3=O)nc(N)c2c1C", "note": "[CBK264424]", "viability at 28.5 h, 10 µM": 76.6}, {"molecule": "CC(C)CSc1nc(O)cc(=O)n1Cc1ccccc1", "note": "[CBK291170]", "viability at 28.5 h, 10 µM": 114}, {"molecule": "CNC(=S)N(Cc1ccc(S(N)(=O)=O)cc1)C1CC(=O)N(c2ccc(OC)cc2)C1=O", "note": "(stereo not drawn) [CBK262940]", "viability at 28.5 h, 10 µM": 95.1}, {"molecule": "O=C(Cn1c(=O)cc(O)c2ccccc21)Nc1cccc(F)c1", "note": "[CBK291242]", "viability at 28.5 h, 10 µM": 98.1}, {"molecule": "CN1CCC(C(=O)NC2Cc3ccccc3C2)CC1", "note": "[CBK200263]", "viability at 28.5 h, 10 µM": 118}, {"molecule": "CC(C)(C)c1cc(CNCCS(=O)(=O)O)c(O)c(C(C)(C)C)c1", "note": "[CBK261098]", "viability at 28.5 h, 10 µM": 107}, {"molecule": "O=C(CCCN1C(=O)c2ccccc2C1=O)Nc1ccc(C(=O)O)cc1", "note": "[CBK287043]", "viability at 28.5 h, 10 µM": 94.2}, {"molecule": "O=C(N[C@@H]1CNCCC[C@H]1O)c1ccc(OCCN2CCOCC2)cc1", "note": "[CBK289065]", "viability at 28.5 h, 10 µM": 98.3}, {"molecule": "O=C1COc2ccccc2C/C=C/C[C@H]2CNCC[C@H]2N1", "note": "[CBK292033]", "viability at 28.5 h, 10 µM": 101}, {"molecule": "COc1cc(-c2cn3ccnc3c(NCC3CC3)n2)ccc1O", "note": "[CBK037538]", "viability at 28.5 h, 10 µM": 106}, {"molecule": "O=c1cc2nc(-c3ccccc3F)[nH]c(=S)n2[nH]1", "note": "[CBK288402]", "viability at 28.5 h, 10 µM": 95.5}, {"molecule": "O=C(N[C@H]1CCN2C(=O)N(c3ccc(Br)cc3)C(=O)[C@@H]2C1)c1cccnc1", "note": "[CBK289557]", "viability at 28.5 h, 10 µM": 104}, {"molecule": "c1ccc(-c2nc(C3CCCC3)n3ccccc23)cc1", "note": "[CBK149260]", "viability at 28.5 h, 10 µM": 93.3}, {"molecule": "COc1cc(-c2cncc(NC(C)CCCC(C)(C)O)n2)cc(OC)c1OC", "note": "(stereo not drawn) [CBK065481]", "viability at 28.5 h, 10 µM": 102}, {"molecule": "COC(=O)c1c(C)[nH]c(C(=O)CSc2ncnc3scc(-c4ccccc4)c23)c1C", "note": "[CBK265918]", "viability at 28.5 h, 10 µM": 95.5}, {"molecule": "CC(=O)Nc1ccc(CNC(=O)CN(C)CC2CCCCO2)cc1", "note": "(stereo not drawn) [CBK306567]", "viability at 28.5 h, 10 µM": 89.6}, {"molecule": "Clc1ccc(COc2nccnc2N2CCN(CCOc3ccccc3)CC2)cc1Cl", "note": "[CBK083091T]", "viability at 28.5 h, 10 µM": 95.2}, {"molecule": "CCOc1ccccc1N(CC(=O)O)S(=O)(=O)c1ccc(Cl)cc1", "note": "[CBK287144]", "viability at 28.5 h, 10 µM": 110}, {"molecule": "CC(CNC(=O)Cc1ccc(C(F)(F)F)cc1[N+](=O)[O-])N1CCc2ccccc2C1", "note": "(stereo not drawn) [CBK298292]", "viability at 28.5 h, 10 µM": 88.8}, {"molecule": "CC(=O)[C@H]1C[C@@H](CC(=O)Nc2cc3cccnc3nc2Cl)C1(C)C", "note": "[CBK091351]", "viability at 28.5 h, 10 µM": 95.7}, {"molecule": "O=C(CCn1cccn1)N1CCC(c2cc3ncccc3[nH]2)CC1", "note": "[CBK284457]", "viability at 28.5 h, 10 µM": 83.6}, {"molecule": "Cc1cc(C(=O)NCCO)ccc1Br", "note": "[CBK175092]", "viability at 28.5 h, 10 µM": 92}, {"molecule": "Cc1ccccc1Nc1nc(N)nc(CN2CCCC(C(F)(F)F)C2)n1", "note": "(stereo not drawn) [CBK305073]", "viability at 28.5 h, 10 µM": 105}, {"molecule": "O=C(CN1C(=O)COc2ccccc21)NC1CC1", "note": "[CBK270261]", "viability at 28.5 h, 10 µM": 96}, {"molecule": "CC1(C)C/C(=N/O)c2cc3c(nc2C1)CC(C)(C)C/C3=N\\O", "note": "[CBK261629]", "viability at 28.5 h, 10 µM": 106}, {"molecule": "C(=C\\c1ccc(-c2nnc(CSCCOc3ccccc3)o2)cc1)/CN1CCCC1", "note": "[CBK081376]", "viability at 28.5 h, 10 µM": 98.5}, {"molecule": "COc1ccc(Sc2nc3ccccc3nc2N2CCCC2)cc1OC", "note": "[CBK093797]", "viability at 28.5 h, 10 µM": 101}, {"molecule": "CCCn1ccnc1-c1cn(Cc2cc(C(C)(C)C)n[nH]2)nn1", "note": "[CBK306791]", "viability at 28.5 h, 10 µM": 118}, {"molecule": "Cc1cccc(C(=O)N[C@@H](C)Cn2nc3c(cc2=O)CCCC3)c1", "note": "[CBK284563]", "viability at 28.5 h, 10 µM": 89.1}, {"molecule": "COC[C@H](C)Nc1ccc(C(=O)N2CCC(N3CCOCC3)CC2)cn1", "note": "[CBK306917]", "viability at 28.5 h, 10 µM": 84.8}, {"molecule": "CCOc1cc(NC2CCN(C(=O)Cc3ccncc3)CC2)ncn1", "note": "[CBK304752]", "viability at 28.5 h, 10 µM": 101}, {"molecule": "COc1ccc(CNC(=O)C2CCCN(S(C)(=O)=O)C2)cc1OC", "note": "(stereo not drawn) [CBK299830]", "viability at 28.5 h, 10 µM": 90.2}, {"molecule": "Sc1nnnn1-c1ccccc1", "note": "[CBK022881G]", "viability at 28.5 h, 10 µM": 99.9}, {"molecule": "Cc1ccccc1N1CCC(CNC(=O)CCc2ccnn2C)C1", "note": "(stereo not drawn) [CBK306543]", "viability at 28.5 h, 10 µM": 89}, {"molecule": "CCOC(=O)c1cccc(NS(=O)(=O)c2cc(Br)ccc2OC)c1", "note": "[CBK034336]", "viability at 28.5 h, 10 µM": 63.3}, {"molecule": "CC(C)n1c(=O)c2c(-c3cc(C(C)(C)C)no3)ncn2c2ccccc21", "note": "[CBK016666]", "viability at 28.5 h, 10 µM": 86.6}, {"molecule": "Cc1cc2c(o1)CCc1sc(N(C)C(=O)C3CC(=O)N(C)C3)nc1-2", "note": "(stereo not drawn) [CBK283980]", "viability at 28.5 h, 10 µM": 75.6}, {"molecule": "c1ccc2c(-c3ccc(OC4CCNCC4)cc3)cncc2c1", "note": "[CBK126578]", "viability at 28.5 h, 10 µM": 112}, {"molecule": "NC(=O)c1cccc(-c2cnc(N)c(N3CCC[C@@H]3CO)n2)c1", "note": "[CBK063458]", "viability at 28.5 h, 10 µM": 99.5}, {"molecule": "COc1cc(NS(=O)(=O)c2ccc(NC(=O)c3ccc(C)o3)cc2)nc(OC)n1", "note": "[CBK268182]", "viability at 28.5 h, 10 µM": 91.6}, {"molecule": "O=C(C1CCCCC1)N1CCC(c2nnc3n2CCCCC3)CC1", "note": "[CBK284613]", "viability at 28.5 h, 10 µM": 92.7}, {"molecule": "CC(=O)Nc1ccc(C(=O)NC(c2cccs2)C2CCCC2)cc1", "note": "(stereo not drawn) [CBK297777]", "viability at 28.5 h, 10 µM": 84.1}, {"molecule": "COc1ccc(S(=O)(=O)N2Cc3ccccc3CC2C(=O)Nc2ccc(O)cc2)cc1OC", "note": "(stereo not drawn) [CBK293967]", "viability at 28.5 h, 10 µM": 90.9}, {"molecule": "O=C(O)/C(=C\\c1ccc(Cl)cc1)NC(=O)c1ccccc1I", "note": "[CBK265701]", "viability at 28.5 h, 10 µM": 90.1}, {"molecule": "O=S(=O)(Nc1ccc(C(O)(C(F)(F)F)C(F)(F)F)cc1)c1ccc(N2CCOCC2)nc1", "note": "[CBK062100]", "viability at 28.5 h, 10 µM": 94.9}, {"molecule": "O=C(c1ccc2ncsc2c1)N1CCN(S(=O)(=O)c2ccc(C(F)(F)F)cc2)CC1", "note": "[CBK295285]", "viability at 28.5 h, 10 µM": 98.2}, {"molecule": "CNCC(=O)N1CCN(C(=O)c2ccc(Cl)cc2Cl)CC1", "note": "[CBK029576]", "viability at 28.5 h, 10 µM": 99.9}, {"molecule": "Cc1ccc(OCc2nnc(SCC(=O)c3cccs3)n2-c2ccccc2)cc1C", "note": "[CBK265033]", "viability at 28.5 h, 10 µM": 101}, {"molecule": "COc1ccc(CCNC(=O)c2nc3ncccn3n2)cc1OC", "note": "[CBK268795]", "viability at 28.5 h, 10 µM": 90.4}, {"molecule": "CC(=O)NC(N(C)S(=O)(=O)c1ccc(C)cc1)C(Cl)(Cl)Cl", "note": "(stereo not drawn) [CBK262662]", "viability at 28.5 h, 10 µM": 93.8}, {"molecule": "COc1ccc(-c2nnc([C@H]3CCN(Cc4cccc(C#N)c4)C3)o2)cc1", "note": "[CBK289400]", "viability at 28.5 h, 10 µM": 94.8}, {"molecule": "O=C(c1ccc(F)cc1)N1C[C@@H]2C[C@H](C1)c1ccc(-c3cncnc3)c(=O)n1C2", "note": "[CBK289185]", "viability at 28.5 h, 10 µM": 92.9}, {"molecule": "CC(C)N(Cc1nc(-c2ccc(Cl)cc2)no1)S(=O)(=O)c1cccc([N+](=O)[O-])c1", "note": "[CBK267050]", "viability at 28.5 h, 10 µM": 83.6}, {"molecule": "CCN(Cc1ccc(C#N)cc1F)C(=O)NC(C)c1cnn(C)c1C", "note": "(stereo not drawn) [CBK305643]", "viability at 28.5 h, 10 µM": 108}, {"molecule": "CC(C)(C)c1cc(CN2CCN(CCO)CC2)cc(C(C)(C)C)c1O", "note": "[CBK261753]", "viability at 28.5 h, 10 µM": 95.4}, {"molecule": "CC(C)c1nc(CCNC(=O)C2(Cn3ccnc3)CC2)no1", "note": "[CBK306828]", "viability at 28.5 h, 10 µM": 86.2}, {"molecule": "O=C(O)C1C2CCC(CC2)C1C(=O)N1CCN(Cc2ccccc2Cl)CC1", "note": "(stereo not drawn) [CBK270336]", "viability at 28.5 h, 10 µM": 100}, {"molecule": "Cc1nn(CC(=O)N2CCC(C)CC2)c(=O)c2cc3ccsc3n12", "note": "[CBK284081]", "viability at 28.5 h, 10 µM": 91.3}, {"molecule": "CC(=O)c1ccc(NC(=O)N2Cc3nc[nH]c3C[C@H]2c2nc(-c3ccc(F)cc3)no2)cc1", "note": "[CBK288971]", "viability at 28.5 h, 10 µM": 83.6}]}, {"assay": "in vitro", "conditions": "human, hela cells, % viability, bulk resorufin, single well", "units": {"viability at 28.5 h, 10 µM": "%"}, "values": [{"molecule": "COc1ccc(CCNCc2ccc([N+](=O)[O-])cc2)cc1OC", "note": "[CBK262217]", "viability at 28.5 h, 10 µM": 115}]}]}
